In patent US6114334A, “Piperazine derivatives as therapeutic agents” (Knoll Aktiengesellschaft, priority 1995, dated 2000):
Where a name gives a salt, the structure may show the parent alone. Read-outs that look alike come from different tables or passages of the source.

Experiments:
5-HT1A receptors = molecular target: T1, 5-HT1A receptors (Rattus norvegicus, UniProt P19327); test: inhibition of [3H]8-OH-DPAT binding to 5-HT1A receptors in vitro; set-up: species or system rat (male Sprague-Dawley, hippocampal tissue); details: for inhibition at 1 µM: read-out: % displacement at 10^-6 M, 5-HT1A; for Ki: [3H]8-OH-DPAT 2 nM, 25° C., 30 min
T1 sequence (P19327 1-422): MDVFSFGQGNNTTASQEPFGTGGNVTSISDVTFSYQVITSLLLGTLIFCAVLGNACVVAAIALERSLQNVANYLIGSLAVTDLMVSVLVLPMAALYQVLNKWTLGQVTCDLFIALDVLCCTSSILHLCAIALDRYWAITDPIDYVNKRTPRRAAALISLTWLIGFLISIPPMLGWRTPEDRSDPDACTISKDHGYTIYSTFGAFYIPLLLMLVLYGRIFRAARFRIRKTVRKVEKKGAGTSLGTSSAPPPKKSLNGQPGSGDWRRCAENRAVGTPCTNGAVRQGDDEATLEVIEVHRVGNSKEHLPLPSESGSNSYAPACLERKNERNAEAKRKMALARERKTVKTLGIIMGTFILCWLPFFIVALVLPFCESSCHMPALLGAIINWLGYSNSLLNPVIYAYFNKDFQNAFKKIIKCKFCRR
Protocol: Hippocampal tissue from the brains of male Sprague-Dawley rats (Charles River; weight range 150-250 g) was homogenised in ice-cold 50 mM Tris-HCl buffer (pH 7.7 when measured at 25° C., 1:40 w/v) and centrifuged at 30,000 g at 4° C. for 10 minutes. The pellet was rehomogenised in the same buffer, incubated at 37° C. for 10 minutes and centrifuged at 30,000 g at 4° C. for 10 minutes. The final pellet was resuspended in 50 mM Tris-HCl buffer (pH 7.7) containing 4 mM CaCl2. 0.1% L-ascorbic acid and 10 μM pargyline hydrochloride (equivalent to 6.25 mg wet weight of tissue/ml) and used immediately in the binding assay. Aliquots (400 μl; equivalent to 2.5 mg wet weight of tissue/tube) of this suspension were added to tubes containing the ligand (50 μl; 2 nM) and distilled water (50 μl; total binding) or 5-HT (50 μl; 10 μM; non-specific binding) or test compound (50 μl; at a single concentration of 10^-6 M or at 10 concentrations ranging from 10^-11 -10^-3 M). The ligand was [^3 H]8-hydroxy-2-(dipropylamino)tetralin ([^3 H]8-OH-DPAT) and the mixture was incubated at 25° C. for 30 minutes before the incubation was terminated by rapid filtration.
The filters were washed with ice-cold Tris-HCl buffer and dried. The filters were punched out into vials, scintillation fluid added and radioactivity determined by liquid scintillation counting. The percentage displacement of specific binding of the tritiated ligand was calculated for the single concentration (10^-6 M) of test compound. Displacement curves were then produced for those compounds which displaced ≥50% of specific binding of the tritiated ligand at 10^-6 M using a range of concentrations of the compound. The concentration which gave 50% inhibition of specific binding (IC50) was obtained from the curve. The inhibition coefficient Ki was then calculated using the formula [formula] in which [ligand] is the concentration of the tritiated ligand used and KD is the equilibrium dissociation constant for the ligand.

α2D-adrenoceptors = molecular target: T2, α2D-adrenoceptors (Rattus norvegicus, UniProt P22909); test: inhibition of tritiated idazoxan binding to α2D-adrenoceptors in vitro; set-up: species or system rat (male Charles River CD, frontal cortical tissue); details: rat frontal cortex; for Ki: [3H]idazoxan 1 nM, 0° C., 75 min; for inhibition at 1 µM: 10^-6 M, [3H]idazoxan, read-out: % displacement at 10^-6 M, α2D
T2 sequence (P22909 1-465): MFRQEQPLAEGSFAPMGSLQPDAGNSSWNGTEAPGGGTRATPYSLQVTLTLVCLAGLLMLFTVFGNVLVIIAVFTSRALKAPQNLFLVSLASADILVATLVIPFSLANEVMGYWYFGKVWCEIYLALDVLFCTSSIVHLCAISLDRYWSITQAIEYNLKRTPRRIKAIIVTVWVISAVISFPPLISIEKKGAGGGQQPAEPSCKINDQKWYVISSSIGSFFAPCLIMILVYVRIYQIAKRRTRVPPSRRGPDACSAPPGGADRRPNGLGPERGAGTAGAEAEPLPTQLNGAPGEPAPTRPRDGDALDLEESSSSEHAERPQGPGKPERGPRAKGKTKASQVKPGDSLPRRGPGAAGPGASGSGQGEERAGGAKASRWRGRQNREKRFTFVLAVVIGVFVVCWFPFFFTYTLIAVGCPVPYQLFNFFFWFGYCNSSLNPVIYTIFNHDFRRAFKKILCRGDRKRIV

α1-adrenoceptors = test: inhibition of 7-methoxy-[3H]prazosin binding to α1-adrenoceptors in vitro; set-up: species or system rat (male Charles River CD, whole cortical tissue); details: rat whole cortex, 30 min; for % displacement at 10^-6 M, α1: 7-methoxy-[3H]prazosin, 1 µM; for Ki: 7-methoxy-[3H]prazosin 0.1 nM, 30° C.
Protocol: Whole cortical tissue from the brains of male Charles River CD rats weighing between 150-250 g were homogenised in ice-cold 50 mM Tris-HCl, pH 7.6 (at 25° C.; 1:40 w/v) and centrifuged at 1000 g at 4° C. for 10 minutes. The supernatant was centrifuged at 30,000 g at 4° C. for 10 minutes. The pellet was rehomogenised in 50 mM Tris-HCl, pH 7.6 (1:40 w/v) and centrifuged at 30,000 g at 4° C. for 10 minutes. The final pellet was resuspended in 50 mM Tris-HCl, pH 7.6 (equivalent to 12.5 mg wet weight of tissue/ml) and used immediately in the binding assay. Aliquots (400 μl; equivalent to 5 mg wet weight of tissue/tube) of this suspension were added to tubes containing the ligand (50 μl; 0.1 nM) and distilled water (50 μl; total binding) or phentolamine (50 μl; 5 μM; non-specific binding) or test compound (50 μl; at a single concentration of 10^-6 M or at 10 concentrations ranging from 10^-11 -10^-3 M). The ligand was 7-methoxy-[^3 H]prazosin and the mixture was incubated at 30° C. for 30 minutes before the incubation was terminated by rapid filtration. The filters were washed with ice-cold Tris-HCl buffer and dried. The filters were punched out into vials, scintillation fluid added and radioactivity determined by liquid scintillation counting. The percentage displacement of specific binding of the tritiated ligand was calculated for the single concentration (10^-6 M) of test compound. […] The concentration which gave 50% inhibition of specific binding (IC50) was obtained from the curve. The inhibition coefficient Ki was then calculated using the formula [formula] in which [ligand] is the concentration of the tritiated ligand used and KD is the equilibrium dissociation constant for the ligand.

D2 dopamine receptors = D2 dopamine receptors (Rattus norvegicus, UniProt P61169); test: inhibition of tritiated (S)-sulpiride binding to D2 dopamine receptors in vitro; set-up: species or system rat (male Charles River CD, striatal tissue); details: rat striatum, tritiated (S)-sulpiride 1 nM, 4° C., 40 min
[1] = 10^-6 M, rat hippocampus, [3H]8-OH-DPAT

Sequence of D2 dopamine receptors (P61169 whole entry): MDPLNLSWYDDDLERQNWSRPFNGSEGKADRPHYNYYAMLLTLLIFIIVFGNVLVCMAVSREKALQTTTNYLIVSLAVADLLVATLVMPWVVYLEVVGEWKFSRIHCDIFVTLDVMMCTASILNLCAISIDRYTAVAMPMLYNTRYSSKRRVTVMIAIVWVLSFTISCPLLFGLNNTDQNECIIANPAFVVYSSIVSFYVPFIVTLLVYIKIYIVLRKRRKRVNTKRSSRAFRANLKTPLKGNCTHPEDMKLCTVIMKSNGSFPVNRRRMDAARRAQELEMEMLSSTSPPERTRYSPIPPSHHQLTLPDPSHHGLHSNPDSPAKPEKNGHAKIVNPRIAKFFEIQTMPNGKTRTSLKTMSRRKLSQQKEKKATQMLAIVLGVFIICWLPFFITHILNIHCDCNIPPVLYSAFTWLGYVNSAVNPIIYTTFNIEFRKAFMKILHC

Row | SMILES | inhibition at 1 µM (5-HT1A receptors; [1]) | Ki (α2D-adrenoceptors) | % displacement at 10^-6 M, α1 (α1-adrenoceptors) | Ki (D2 dopamine receptors) | inhibition at 1 µM (α2D-adrenoceptors) | Ki (α1-adrenoceptors) | Ki (5-HT1A receptors; rat hippocampus) | inhibition at 1 µM (5-HT1A receptors)
1 | C=CCn1c(-c2cccs2)nn(CCN2CCN(c3ccccc3OC)CC2)c1=O [Example 69, 4-Allyl-2-{2-[4-(2-methoxyphenyl)piperazin-1-yl]ethyl}-5-(2-thienyl)-1,2,4-triazol-3(2H,4H)-one] | 70% | > 500 nM | 93% | > 500 nM | – | – | – | –
2 | C=CCn1c(-c2cccnc2)nn(CN2CCN(c3ccccc3OC)CC2)c1=O [Example 63, 4-Allyl-2-[4-(2-methoxyphenyl)piperazin-1-ylmethyl]-5-(3-pyridyl)-1,2,4-triazol-3(2H,4H)-one] | 74% | – | – | 193 nM | 66% | > 500 nM | – | –
3 | C=CCn1c(-c2ccccc2)nn(CCCCN2CCN(c3ccccc3OC)CC2)c1=O.Cl.Cl [Example 66, 4-Allyl-2-{4-[4-(2-methoxyphenyl)piperazin-1-yl]butyl}-5-phenyl-1,2,4-triazol-3(2H,4H)-one dihydrochloride] | – | > 500 nM | 99% | 169 nM | – | – | – | 92%
4 | C=CCn1c(-c2ccccc2)nn(CCN2CCN(c3ccccc3OC)CC2)c1=O.O=C(O)/C=C/C(=O)O [Example 68, 4-Allyl-2-{2-[4-(2-methoxyphenyl)piperazin-1-yl]ethyl}-5-phenyl-1,2,4-triazol-3(2H,4H)-one monofumarate] | 56% | > 500 nM | 67% | > 500 nM | – | – | – | –
5 | C=CCn1c(-c2cccnc2)nn(CCN2CCN(c3cccc(C)c3C)CC2)c1=O [Example 65, 4-Allyl-2-{2-[4-(2,3-dimethylphenyl)piperazin-1-yl]ethyl}-5-(3-pyridyl)-1,2,4-triazol-3(2H,4H)-one 2.8 hydrochloride] | 63% | > 500 nM | 56% | > 500 nM | – | – | – | –
6 | C=CCn1c(-c2ccccc2)nn(CN2CCN(c3ccccc3OC)CC2)c1=S [Example 52, 4-Allyl-2-[4-(2-methoxyphenyl)piperazin-1-ylmethyl]-5-phenyl-1,2,4-triazole-3(2H,4H)-thione] | – | 148 nM | – | 222 nM | – | > 500 nM | 150 nM | –
7 | C=CCn1c(-c2cccnc2)nn(CCN2CCN(c3ccccc3C)CC2)c1=O [Example 71, 4-Allyl-2-{2-[4-(2-methylphenyl)piperazin-1-yl]ethyl}-5-(3-pyridyl)-1,2,4-triazol-3(2H,4H)-one] | – | > 500 nM | 56% | > 500 nM | – | – | > 500 nM | –
8 | COc1ccccc1N1CCN(Cn2nc(C(F)(F)F)n(C)c2=S)CC1 [Example 54, 2-[4-(2-Methoxyphenyl)piperazin-1-ylmethyl]-4-methyl-5-(trifluoromethyl)-1,2,4-triazole-3(2H,4H)-thione] | – | 218 nM | – | 243 nM | – | 477 nM | 135 nM | –
9 | C=CCn1c(C)nn(CCN2CCN(c3ccccc3OC)CC2)c1=O [Example 70, 4-Allyl-2-{2-[4-(2-methoxyphenyl)piperazin-1-yl]ethyl}-5-methyl-1,2,4-triazol-3(2H,4H)-one] | 69% | > 500 nM | 64% | 310 nM | – | – | – | –
10 | COc1ccccc1N1CCN(Cc2c(C3CC3)nn(-c3ccccc3)c2N)CC1 [Example 9, 5-amino-3-cyclopropyl-4-[4-(2-methoxyphenyl)piperazin-1-ylmethyl]-1-phenylpyrazole] | – | 81 nM | – | 374 nM | – | 9 nM | 49 nM | –
11 | COCCCn1c(-c2ccncc2)nn(CN2CCN(c3ccccc3OC)CC2)c1=S [Example 50, 2-[4-(2-Methoxyphenyl)piperazin-1-ylmethyl]-4-(3-methoxypropyl)-5-(4-pyridyl)-1,2,4-triazole-3(2H,4H)-thione] | – | 194 nM | – | 192 nM | – | > 500 nM | 170 nM | –
12 | C=CCn1c(-c2ccc(Cl)cc2)nn(CN2CCN(c3ccccc3OC)CC2)c1=S [Example 62, 4-Allyl-5-(4-chlorophenyl)-2-[4-(2-methoxyphenyl)piperazin-1-ylmethyl]-1,2,4-triazole-3(2H,4H)-thione] | 77% | – | 59% | 201 nM | 68% | – | – | –
13 | COc1ccccc1N1CCN(Cn2nc(-c3ccc(Cl)cc3)n(-c3cccnc3)c2=S)CC1 [Example 48, 5-(4-Chlorophenyl)-2-[4-(2-methoxyphenyl)piperazin-1-ylmethyl]-4-(3-pyridyl)-1,2,4-triazole-3(2H,4H)-thione] | – | 71 nM | – | 200 nM | – | 430 nM | 108 nM | –
14 | C=CCn1c(-c2cccnc2)nn(CCN2CCN(c3ccccc3OC)CC2)c1=O.Cl.Cl [Example 67, 4-Allyl-2-{2-[4-(2-methoxyphenyl)piperazin-1-yl]ethyl}-5-(3-pyridyl)-1,2,4-triazol-3(2H,4H)-one dihydrochloride] | – | > 500 nM | 78% | > 500 nM | – | – | – | 52%

The remaining compounds from weak to strong by Ki (D2 dopamine receptors), led by results:

Row | inhibition at 1 µM (5-HT1A receptors; [1]) | Ki (α2D-adrenoceptors) | % displacement at 10^-6 M, α1 (α1-adrenoceptors) | Ki (D2 dopamine receptors) | inhibition at 1 µM (α2D-adrenoceptors) | Ki (α1-adrenoceptors) | Ki (5-HT1A receptors; rat hippocampus) | SMILES | inhibition at 1 µM (5-HT1A receptors)
15 | – | 104 nM | – | 173 nM | – | 301 nM | 126 nM | C=CCn1c(-c2ccccn2)nn(CN2CCN(c3ccccc3OC)CC2)c1=S [Example 58, 4-Allyl-2-[4-(2-methoxyphenyl)piperazin-1-ylmethyl]-5-(2-pyridyl)-1,2,4-triazole-3(2H,4H)-thione] | –
16 | – | 197 nM | – | 158 nM | – | 401 nM | 105 nM | C=CCn1c(-c2ccco2)nn(CN2CCN(c3ccccc3OC)CC2)c1=S [Example 56, 4-Allyl-5-(2-furyl)-2-[4-(2-methoxyphenyl)piperazin-1-ylmethyl]-1,2,4-triazole-3(2H,4H)-thione] | –
17 | 54% | > 500 nM | 53% | 134 nM | – | – | – | COc1ccccc1N1CCN(Cn2nc(-c3ccncc3)n(C)c2=S)CC1 [Example 51, 2-[4-(2-Methoxyphenyl)piperazin-1-ylmethyl]-4-methyl-5-(4-pyridyl)-1,2,4-triazole-3(2H,4H)-thione] | –
18 | – | 146 nM | – | 121 nM | – | > 500 nM | 123 nM | C=CCn1c(-c2ccncc2)nn(CN2CCN(c3ccccc3OC)CC2)c1=S [Example 49, 4-Allyl-2-[4-(2-methoxyphenyl)piperazin-1-ylmethyl]-5-(4-pyridyl)-1,2,4-triazole-3(2H,4H)-thione] | –
19 | – | 194 nM | – | 73 nM | – | 358 nM | 108 nM | COc1ccccc1N1CCN(Cn2ncn(C)c2=S)CC1 [Example 55, 2-[4-(2-Methoxyphenyl)piperazin-1-ylmethyl]-4-methyl-1,2,4-triazole-3(2H,4H)-thione] | –
20 | – | > 500 nM | – | 48 nM | – | 16 nM | 64 nM | C=CCn1c(-c2cccnc2)nn(CCCCN2CCN(c3ccccc3OC)CC2)c1=O [Example 46, 4-allyl-2-{4-[4-(2-methoxyphenyl)piperazin-1-yl]butyl}-5-(3-pyridyl)-1,2,4-triazol-3(2H,4H)-one] | –
